Results on five molecules are retold here after US9138492B2, “Particle containing hydrophobic dye having cyanine structure, and contrast agent containing the particle” (CANON KABUSHIKI KAISHA, priority 2012, dated 2015).

The series in a line: Evaluation of hydrophobicity degree of dye by TLC (Rf value). Conditions: of the dye used; TLC glass plate RP-18, methanol containing 1 wt % lithium chloride. It is filed as physicochemical. As to the method: (Evaluation Method for Hydrophobicity Degree of Hydrophobic Dye Having Cyanine Structure) In order to compare the hydrophobicity degrees of hydrophobic dyes each having a cyanine structure, an evaluation was performed through use of a thin-layer liquid chromatography (hereinafter may be abbreviated as TLC) method. A TLC glass plate RP-18 (manufactured by Merck) was used as a plate for development, and a methanol solution containing 1 wt % of lithium chloride was used as a developing solvent. According to an ordinary method, a dye solution was spotted on the origin, and a relative migration distance (hereinafter may be abbreviated as Rf value) was calculated based on the following equation. Rf value=Distance from origin to center of spot of component/Distance from origin to solvent front

Regarding `CN1/C(=C/C=C/C=C/C=C/C2=[N+](C)c3ccccc3C2(C)C)C(C)(C)c2ccccc21` [Chemical formula (A1), 1,1′,3,3,3′,3′-hexamethylindotricarbocyanine iodide], the Rf value is reported as 0.45. The result for `CCN1/C(=C/C=C/C=C/C=C/C2=[N+](CC)c3ccccc3C2(C)C)C(C)(C)c2ccccc21` [Chemical formula (A2), 3H-indolium, 1-ethyl-2-[7-(1-ethyl-1,3-dihydro-3,3-dimethyl-2H-indol-2-ylidene)-1,3,5-heptatrien-1-yl]-3,3-dimethyl-, iodide] reads 0.5; that for `CN1/C(=C/C=C2\CCCC(/C=C/C3=[N+](C)c4ccc5ccccc5c4C3(C)C)=C2Cl)C(C)(C)c2c1ccc1ccccc21` [Chemical formula (A3), 2-[2-[2-chloro-3-[2-(1,3-dihydro-1,1,3-trimethyl-2H-benzo[e]-indol-2-ylidene)-ethylidene]-1-cyclohexen-1-yl]-ethenyl]-1,1,3-trimethyl-1H-benzo[e]indolium perchlorate], 0.09. As for `CN1\C(=C/C=C/C=C/C=C/C2=[N+](C)c3ccccc3C2(C)C)C(C)(C)c2ccccc21` [Chemical formula (C1), 1,1′,3,3,3′,3′-hexamethylindotricarbocyanine perchlorate], the figure is 0.45. As for `CN1/C(=C/C=C/C=C/C=C/C2=[N+](C)c3ccc4ccccc4c3C2(C)C)C(C)(C)c2c1ccc1ccccc21` [Chemical formula (C2), 1,1′,3,3,3′,3′-hexamethyl-4,4′,5,5′-dibenzo-2,2′-indotricarbocyanine perchlorate], the figure is 0.31.
